The record followed here is patent publication EP0974593A1, “Artemisinin derivatives as antiparasitic agents” (The Hong Kong University of Science & Technology, priority 1998, dated 2000).

Assay [1] deals with Plasmodium Falciparum D6 strain (chloroquine sensitive). Description: In vitro activity against Plasmodium falciparum, 3H-hypoxanthine incorporation assay, D6 strain. Type of assay: cell-based. The note with it: D6, 66 h; for IC50 / IC90: Plasmodium falciparum; for IC50: read-out: In vitro activity: IC50; for IC90: read-out: In vitro activity: IC90. From the text: (§1) (a) InVitro Activity against Plasmodium Falciparum
(§2) Two parasite strains - W2 resistant to chloroquine, and D6 sensitive to chloroquine but […] were used. In Table I below, the best compounds should show no cross resistance between the two strains.
(§3) The assay relies on incorporation of radiolabelled hypoxanthine by the parasite and inhibition of incorporation is attributed to activity of known or candidate antimalarial drugs. For each assay, proven antimalarials such as chloroquine, mefloquine, quinine, artemisinin and pyrimethamine were used as controls. The incubation period was 66 hours, and the starting parasitemia was 0.2% with 1% hematocrit. The medium was an RPMI-1640 culture with no folate or p-aminobenzoic acid. Albumax rather than 10% normal heat inactivated human plasma was used as, with Albumax, less protein binding is observed, and compounds elicit slightly higher activities in this model. If a compound was submitted with no prior knowledge of activity, it was dissolved directly in dimethyl sulphoxide (DMSO), and diluted 400 fold with complete culture medium. […]. These dilutions were performed automatically by a Biomek 1000 Liquid Handling System in 96-well microtiter plates. The diluted drugs were then transferred to test plates, 200 µL of parasitized erythrocytes were added, and incubated at 37°C in a controlled environment of 5% CO2, 5% O2 and 90% N2. After […], 25 µL of ^3H-hypoxanthine was added, and the plates incubated for an additional 24 hours. After 66 hours, the plates were frozen at -70°C to lyse the red cells, and then thawed and harvested onto glass fiber filter mats in a 96-well harvester. The filter mats were then counted in a scintillation counter. For each drug, the concentration response profile was determined and 50% and 90% inhibitory concentrations (IC50, IC90 […]) were determined by a non-linear logistic dose response analysis program.
(§4) A prescreen format can be used wherein a 3-dilution assay may be used to determine activity at high medium or low concentrations. […]. These were performed in duplicate on a 96-well format plate with 14 test compounds and one known (standard) compound per plate. The system was automated with a Biomek diluter for mixing and diluting the drugs, and adding drugs and parasites to a test plate.
(§5) In the prescreen format, if the ANALYSIS FIELD (AF) has a "<", then the compound was "very active" and the IC values are most likely to be below the last dilution value (in nanograms/ml), which is listed next to AF. In most cases, these compounds were run again at lower starting concentration to determine the true IC value. If the AF has a ">", then the IC value is greater than the prescreen dilution value; thus "AF>250" means that the IC value is greater than 250 ng ml^-1 and no further screening is carried out. In such cases, values of 0.00 are entered for IC values.

Assay [2] relates to Plasmodium Falciparum W2 strain (chloroquine resistant). The assay can be described thus: In vitro activity against Plasmodium falciparum, 3H-hypoxanthine incorporation assay, W2 strain. The note with it: W2, 66 h; for IC50 / IC90: Plasmodium falciparum. Type of assay: cell-based.
From the text: as §1, §2, §3, §4, §5

The mark [3] stands for this setting: D6 strain (chloroquine sensitive, resistant to mefloquine), 66 hours incubation, Albumax medium.
Where [4] appears, read: read-out: In vitro activity: IC50, W2 strain (chloroquine resistant), 66 hours incubation, Albumax medium.
Where [5] appears, read: read-out: In vitro activity: IC90, W2 strain (chloroquine resistant), 66 hours incubation, Albumax medium.

In brackets after ≈: the same amount, converted by molar mass. Like-named read-outs stand apart in the source and are kept apart here.

Consider `C[C@@H]1CC[C@H]2[C@@H](C)C(=O)N[C@@H]3O[C@@]4(C)CC[C@@H]1[C@]32OO4` [Example 1, 11-azaartemisinin], for which the values for the IC50 in assay [1] and in assay [2] (read-out: In vitro activity: IC50) were 2.6 ng/mL (≈ 9.24 nM) and 1.73 ng/mL (≈ 6.15 nM), respectively. Besides, the values for the IC90 in assay [1] and in assay [2] (read-out: In vitro activity: IC90) were 3.6 ng/mL (≈ 12.8 nM) and 2.24 ng/mL (≈ 7.96 nM), respectively.

In the case of `C[C@@H]1CC[C@H]2[C@@H](C)C(=O)N(Cc3ccccc3F)[C@@H]3O[C@@]4(C)CC[C@@H]1[C@@]23OO4` [Example 2, 11-aza-N-(2-fluorobenzyl)artemisinin], the IC50 in assay [1] (setting [3]) was determined as 0.64 ng/mL (≈ 1.64 nM); in assay [2] (setting [4]), 0.775 ng/mL (≈ 1.99 nM). Also, the IC90 came to 0.99 ng/mL (≈ 2.54 nM) in assay [1] (setting [3]) and 0.975 ng/mL (≈ 2.5 nM) in assay [2] (setting [5]).

In the case of `C[C@@H]1CC[C@H]2[C@@H](C)C(=O)N(Cc3ccc(F)cc3)[C@@H]3O[C@@]4(C)CC[C@@H]1[C@@]23OO4` [Example 4], the “In vitro activity: (IC10)” value in assay [1] was found to be 1.13 ng/mL; in assay [2] it was 0.31 ng/mL.

`C[C@@H]1CC[C@H]2[C@@H](C)C(=O)N(Cc3cccc(F)c3)[C@@H]3O[C@@]4(C)CC[C@@H]1[C@@]23OO4` [Example 5]: the IC50 in assay [1] (setting [3]) came to 0.79 ng/mL (≈ 2.03 nM); in assay [2] (setting [4]), 0.58 ng/mL (≈ 1.49 nM). Also, the concentration for an effect of 90% (IC90) stood at 1.26 ng/mL (≈ 3.24 nM) in assay [1] (setting [3]) and 0.95 ng/mL (≈ 2.44 nM) in assay [2] (setting [5]).

For the compound `C[C@@H]1CC[C@H]2[C@@H](C)C(=O)N(Cc3ccccc3)[C@@H]3O[C@@]4(C)CC[C@@H]1[C@@]23OO4` [Example 6], the results for the IC50 in assay [1] (setting [3]) and in assay [2] (setting [4]) were 3.62 ng/mL (≈ 9.74 nM) and 3.8 ng/mL (≈ 10.2 nM), respectively. The concentration for an effect of 90% (IC90) in assay [1] (setting [3]) turned out to be 6.68 ng/mL (≈ 18 nM); in assay [2] (setting [5]), 4.68 ng/mL (≈ 12.6 nM).
